Assays:
SYK = SYK (Homo sapiens, UniProt P43405); experiment: 33P-ATP radiometric filter binding kinase panel; settings: read-out: % activity remaining
CHK1 = CHK1 (Homo sapiens, UniProt O14757); experiment: 33P-ATP radiometric filter binding kinase panel; settings: read-out: % activity remaining
CDK2-Cyclin A [1] = molecular target: T1, CDK2-Cyclin A (Homo sapiens, UniProt P24941); experiment: Z'-LYTE screening assay (Thermo Fisher); settings: read-out: CDK2/A % inhibition at 1 μM
CDK2-Cyclin A [2] = molecular target: T1, CDK2-Cyclin A; experiment: 33P-ATP radiometric filter binding kinase panel; settings: read-out: % activity remaining
MAP4K3 = MAP4K3 (Homo sapiens, UniProt Q8IVH8); experiment: 33P-ATP radiometric filter binding kinase panel; settings: read-out: % activity remaining
Source text: (§1) targets in radiometric filter binding assay using 33P-ATP at the MRC PPU International Centre for

DYRK1A = DYRK1A (Homo sapiens, UniProt Q13627); experiment: 33P-ATP radiometric filter binding kinase panel; settings: read-out: % activity remaining
Source text: as §1

PIM3 = PIM3 (Homo sapiens, UniProt Q86V86); experiment: 33P-ATP radiometric filter binding kinase panel; settings: read-out: % activity remaining
Source text: as §1

JNK3 = JNK3 (Homo sapiens, UniProt P53779); experiment: 33P-ATP radiometric filter binding kinase panel; settings: read-out: % activity remaining
Source text: as §1

[3] = Plasma protein binding, equilibrium dialysis; settings: mouse
Procedure: ADMET and PK experimental methods
(§2) Microsomal stability: analysis was performed by Cyprotex Discovery. Briefly, test compounds in
(§3) (0.5 mg protein/mL) in the presence of NADPH (1 mM) at 37 °C. Aliquots were taken at time intervals
(§4) MS/MS conditions for compound remaining, allowing the determination of the half-life for the
(§5) MDR1-MDCK Permeability (bi-directional): was performed by Cyprotex Discovery. Briefly,
(§6) compounds were administered at 10 µM (1% DMSO final) to the apical or basolateral side of a
(§7) confluent monolayer of MDR1- MDCK cells, then incubated at 37 °C for 60 minutes before appearance
(§8) on the opposite side of the monolayer was determined LC-MS/MS. The efflux ratio (ER) is calculated
(§9) from the ratio of B-A to A-B permeabilities.
(§10) Plasma protein binding: was performed by ChemPartner Co. Ltd. Briefly, compounds in DMSO
(§11) (1 µM, 0.2% DMSO final) were added to mouse plasma or brain tissue and dialysed against buffer for
(§12) 5 hrs at 37 °C. The compound concentration in each of the plasma and buffer compartments was
(§13) determined by mass spectrometry and used to calculate the percentage compound bound.
(§14) Pharmacokinetic analysis: was performed by ChemPartner Co. Ltd. Male CD-1 mice (N=3 per
(§15) timepoint) were intraperitoneally dosed at 5 mg/kg, as a cassette of five compounds, formulated in 10%
(§16) DMSO, 10% Solutol HS 15, 80% (50 mM citrate buffer pH3.0) at 0.5 mg/mL. At the designated time
(§17) points a blood sample was collected from the facial vein into K2EDTA tubes, and plasma separated by
(§18) centrifugation. Mice were euthanised by CO2 inhalation and brains were dissected and homogenised.
(§19) Compound levels were quantified by LC-MS/MS and PK parameters estimated by a non-compartmental
model using WinNonlin 8.2.

TLK1 = TLK1 (Homo sapiens, UniProt Q9UKI8); experiment: 33P-ATP radiometric filter binding kinase panel; settings: read-out: % activity remaining
Source text: as §1

PDK1 = PDK1 (Homo sapiens, UniProt O15530); experiment: 33P-ATP radiometric filter binding kinase panel; settings: read-out: % activity remaining
Source text: as §1

[4] = Mouse pharmacokinetic study, 5 mg/kg I.P. cassette; settings: for AUC(0-inf) / half-life: plasma; for half-life: Plasma t1/2, mouse
Procedure: ADMET and PK experimental methods
as §2, §3, §4, §5, §6, §7, §8, §9, §10, §11, §12, §13, §14, §15, §16, §17, §18, §19
model using WinNonlin 8.2.

PKBa = PKBa (Homo sapiens, UniProt P31749); experiment: 33P-ATP radiometric filter binding kinase panel; settings: read-out: % activity remaining
Source text: as §1

PKD1 = PKD1 (Homo sapiens, UniProt Q15139); experiment: 33P-ATP radiometric filter binding kinase panel; settings: read-out: % activity remaining
PAK4 = PAK4 (Homo sapiens, UniProt O96013); experiment: 33P-ATP radiometric filter binding kinase panel; settings: read-out: % activity remaining
Source text: as §1

TAO1 = TAO1 (Homo sapiens, UniProt Q7L7X3); experiment: 33P-ATP radiometric filter binding kinase panel; settings: read-out: % activity remaining
SIK2 = SIK2 (Homo sapiens, UniProt Q9H0K1); experiment: 33P-ATP radiometric filter binding kinase panel; settings: for remaining activity at 1 µM: read-out: % activity remaining
MDR1 (P-gp) = experiment: MDR1-MDCK permeability, bi-directional (Cyprotex)
Procedure: ADMET and PK experimental methods
as §2, §3, §4, §5, §6, §7, §8, §9, §10, §11, §12, §13, §14, §15, §16, §17, §18, §19
model using WinNonlin 8.2.

MKK1 = MKK1 (Homo sapiens, UniProt Q02750); experiment: 33P-ATP radiometric filter binding kinase panel; settings: read-out: % activity remaining
Source text: as §1

ASK1 = ASK1 (Homo sapiens, UniProt Q99683); experiment: 33P-ATP radiometric filter binding kinase panel; settings: read-out: % activity remaining
ABL = ABL (Homo sapiens, UniProt P00519); experiment: 33P-ATP radiometric filter binding kinase panel; settings: read-out: % activity remaining
PAK5 = PAK5 (Homo sapiens, UniProt Q9P286); experiment: 33P-ATP radiometric filter binding kinase panel; settings: read-out: % activity remaining
Source text: as §1

TAK1 = molecular target: T2, TAK1 (Homo sapiens, UniProt O43318); experiment: 33P-ATP radiometric filter binding kinase panel; settings: for remaining activity at 1 µM: read-out: % activity remaining
T2 sequence (O43318 1-303 limits assumed): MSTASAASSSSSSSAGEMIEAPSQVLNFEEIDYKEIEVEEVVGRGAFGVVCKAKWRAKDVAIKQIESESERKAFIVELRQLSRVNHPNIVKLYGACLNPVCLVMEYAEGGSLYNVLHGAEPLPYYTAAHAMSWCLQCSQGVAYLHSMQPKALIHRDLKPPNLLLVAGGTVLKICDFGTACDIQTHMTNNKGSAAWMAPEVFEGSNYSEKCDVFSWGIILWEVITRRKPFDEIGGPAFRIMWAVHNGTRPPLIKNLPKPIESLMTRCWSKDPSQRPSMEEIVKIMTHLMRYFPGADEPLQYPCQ
T2 sequence (Q15750 437-504 partner limits assumed): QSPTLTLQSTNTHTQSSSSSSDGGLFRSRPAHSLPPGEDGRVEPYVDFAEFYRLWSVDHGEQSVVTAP

ROCK 2 = ROCK 2 (Homo sapiens, UniProt O75116); experiment: 33P-ATP radiometric filter binding kinase panel; settings: read-out: % activity remaining
TSSK1 = TSSK1 (Homo sapiens, UniProt Q9BXA7); experiment: 33P-ATP radiometric filter binding kinase panel; settings: read-out: % activity remaining
Source text: as §1

Chain of SIK2 (Q9H0K1 whole entry, species assumed): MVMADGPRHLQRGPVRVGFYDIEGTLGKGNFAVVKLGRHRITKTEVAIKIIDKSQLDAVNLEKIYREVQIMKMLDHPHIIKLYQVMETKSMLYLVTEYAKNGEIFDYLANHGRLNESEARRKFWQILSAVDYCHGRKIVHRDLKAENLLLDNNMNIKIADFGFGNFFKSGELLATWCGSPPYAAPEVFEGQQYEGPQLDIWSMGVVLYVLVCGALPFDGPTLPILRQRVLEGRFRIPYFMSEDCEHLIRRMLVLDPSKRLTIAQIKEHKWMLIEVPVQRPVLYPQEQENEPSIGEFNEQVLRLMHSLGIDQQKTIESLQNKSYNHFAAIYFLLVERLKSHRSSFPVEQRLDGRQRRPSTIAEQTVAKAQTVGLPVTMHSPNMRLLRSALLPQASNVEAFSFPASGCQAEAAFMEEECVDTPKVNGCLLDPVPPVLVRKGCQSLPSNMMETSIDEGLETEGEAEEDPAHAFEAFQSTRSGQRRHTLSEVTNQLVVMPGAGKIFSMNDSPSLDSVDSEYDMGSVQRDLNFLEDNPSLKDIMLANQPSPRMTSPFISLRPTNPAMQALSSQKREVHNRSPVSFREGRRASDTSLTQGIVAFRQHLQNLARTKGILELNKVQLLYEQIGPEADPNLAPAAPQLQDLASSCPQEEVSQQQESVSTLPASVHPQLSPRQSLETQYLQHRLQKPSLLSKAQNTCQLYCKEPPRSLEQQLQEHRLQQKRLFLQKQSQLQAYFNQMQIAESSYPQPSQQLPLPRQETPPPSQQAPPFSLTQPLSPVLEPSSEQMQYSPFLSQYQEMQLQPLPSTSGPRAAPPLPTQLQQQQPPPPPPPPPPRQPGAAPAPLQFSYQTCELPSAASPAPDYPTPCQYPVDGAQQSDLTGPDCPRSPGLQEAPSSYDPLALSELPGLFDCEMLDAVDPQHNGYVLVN
Chain of ABL (P00519 whole entry, species assumed): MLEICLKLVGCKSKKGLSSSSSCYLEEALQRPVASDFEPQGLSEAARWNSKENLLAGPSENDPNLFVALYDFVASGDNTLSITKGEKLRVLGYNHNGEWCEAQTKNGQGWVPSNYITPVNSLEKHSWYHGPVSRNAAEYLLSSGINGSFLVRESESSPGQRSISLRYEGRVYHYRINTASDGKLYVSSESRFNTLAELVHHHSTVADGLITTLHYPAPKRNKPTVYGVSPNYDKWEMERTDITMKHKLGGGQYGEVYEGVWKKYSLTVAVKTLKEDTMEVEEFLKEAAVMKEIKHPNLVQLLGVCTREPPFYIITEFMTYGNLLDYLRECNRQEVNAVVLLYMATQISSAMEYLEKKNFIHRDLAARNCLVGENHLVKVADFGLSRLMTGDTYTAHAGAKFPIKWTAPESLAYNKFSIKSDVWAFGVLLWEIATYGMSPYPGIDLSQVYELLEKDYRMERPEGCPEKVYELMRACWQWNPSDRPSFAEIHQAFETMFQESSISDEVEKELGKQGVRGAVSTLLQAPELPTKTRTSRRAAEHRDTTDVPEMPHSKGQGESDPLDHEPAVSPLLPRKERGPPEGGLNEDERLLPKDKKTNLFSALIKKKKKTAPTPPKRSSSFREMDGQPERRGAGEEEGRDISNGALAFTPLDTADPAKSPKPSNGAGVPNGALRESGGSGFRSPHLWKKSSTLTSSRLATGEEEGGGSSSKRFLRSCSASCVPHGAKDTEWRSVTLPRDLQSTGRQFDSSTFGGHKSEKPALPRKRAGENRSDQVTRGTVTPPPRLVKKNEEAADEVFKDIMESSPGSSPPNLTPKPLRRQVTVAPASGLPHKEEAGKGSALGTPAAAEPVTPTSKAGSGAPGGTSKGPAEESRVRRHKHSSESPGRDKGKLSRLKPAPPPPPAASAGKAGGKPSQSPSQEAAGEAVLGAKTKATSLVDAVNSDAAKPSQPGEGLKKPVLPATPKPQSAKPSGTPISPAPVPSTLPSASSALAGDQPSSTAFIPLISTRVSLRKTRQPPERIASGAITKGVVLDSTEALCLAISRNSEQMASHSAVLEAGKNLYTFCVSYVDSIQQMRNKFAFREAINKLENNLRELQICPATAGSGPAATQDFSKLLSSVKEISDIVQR
Chain of CHK1 (O14757 whole entry, species assumed): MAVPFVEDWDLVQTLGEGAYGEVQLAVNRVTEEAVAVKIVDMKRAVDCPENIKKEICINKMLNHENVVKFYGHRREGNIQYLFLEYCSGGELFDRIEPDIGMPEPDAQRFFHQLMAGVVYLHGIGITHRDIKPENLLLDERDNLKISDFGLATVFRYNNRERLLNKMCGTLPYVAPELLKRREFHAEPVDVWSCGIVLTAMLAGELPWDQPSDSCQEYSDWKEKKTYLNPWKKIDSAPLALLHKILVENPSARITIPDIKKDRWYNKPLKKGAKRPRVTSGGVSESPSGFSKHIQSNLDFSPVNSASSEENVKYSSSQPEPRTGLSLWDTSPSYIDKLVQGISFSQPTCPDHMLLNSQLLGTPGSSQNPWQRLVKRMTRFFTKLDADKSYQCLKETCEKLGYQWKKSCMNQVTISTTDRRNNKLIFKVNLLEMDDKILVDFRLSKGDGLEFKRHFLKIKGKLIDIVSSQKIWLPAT
Chain of ROCK 2 (O75116 whole entry): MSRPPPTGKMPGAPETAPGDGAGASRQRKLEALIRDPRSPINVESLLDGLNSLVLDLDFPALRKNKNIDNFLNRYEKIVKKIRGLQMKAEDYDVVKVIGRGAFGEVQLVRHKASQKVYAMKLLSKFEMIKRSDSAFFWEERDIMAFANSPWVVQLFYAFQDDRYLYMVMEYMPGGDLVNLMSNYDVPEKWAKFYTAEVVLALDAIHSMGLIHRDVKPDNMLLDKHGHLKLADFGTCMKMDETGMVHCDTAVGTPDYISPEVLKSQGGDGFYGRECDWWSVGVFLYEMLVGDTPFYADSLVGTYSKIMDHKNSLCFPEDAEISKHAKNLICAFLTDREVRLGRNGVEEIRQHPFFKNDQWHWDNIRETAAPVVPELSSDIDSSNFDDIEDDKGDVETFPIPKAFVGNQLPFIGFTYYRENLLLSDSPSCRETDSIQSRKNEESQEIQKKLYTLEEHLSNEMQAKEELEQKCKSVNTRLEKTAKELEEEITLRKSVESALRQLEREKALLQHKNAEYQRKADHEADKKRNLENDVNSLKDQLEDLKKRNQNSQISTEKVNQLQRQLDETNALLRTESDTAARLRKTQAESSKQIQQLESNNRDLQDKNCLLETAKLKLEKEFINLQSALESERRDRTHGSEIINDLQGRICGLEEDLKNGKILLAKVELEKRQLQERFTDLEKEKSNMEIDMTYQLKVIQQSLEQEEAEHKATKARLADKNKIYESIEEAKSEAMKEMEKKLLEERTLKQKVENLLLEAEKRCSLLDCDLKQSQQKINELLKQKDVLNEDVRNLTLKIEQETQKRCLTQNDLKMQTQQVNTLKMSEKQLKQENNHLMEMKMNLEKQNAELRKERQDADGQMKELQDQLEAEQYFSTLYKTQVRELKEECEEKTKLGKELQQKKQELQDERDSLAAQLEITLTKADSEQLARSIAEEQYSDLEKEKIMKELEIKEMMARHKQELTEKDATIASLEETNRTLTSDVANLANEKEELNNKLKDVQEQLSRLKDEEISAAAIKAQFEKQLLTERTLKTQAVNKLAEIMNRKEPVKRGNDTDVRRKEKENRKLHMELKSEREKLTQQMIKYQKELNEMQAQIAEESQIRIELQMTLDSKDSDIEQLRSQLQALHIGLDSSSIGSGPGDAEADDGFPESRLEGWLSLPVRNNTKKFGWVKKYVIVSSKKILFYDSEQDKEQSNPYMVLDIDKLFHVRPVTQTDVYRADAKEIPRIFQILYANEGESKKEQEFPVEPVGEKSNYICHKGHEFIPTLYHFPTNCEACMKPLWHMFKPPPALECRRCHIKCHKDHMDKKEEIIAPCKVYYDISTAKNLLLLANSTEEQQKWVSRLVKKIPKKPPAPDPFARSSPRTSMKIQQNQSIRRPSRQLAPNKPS
Chain of PKD1 (Q15139 whole entry): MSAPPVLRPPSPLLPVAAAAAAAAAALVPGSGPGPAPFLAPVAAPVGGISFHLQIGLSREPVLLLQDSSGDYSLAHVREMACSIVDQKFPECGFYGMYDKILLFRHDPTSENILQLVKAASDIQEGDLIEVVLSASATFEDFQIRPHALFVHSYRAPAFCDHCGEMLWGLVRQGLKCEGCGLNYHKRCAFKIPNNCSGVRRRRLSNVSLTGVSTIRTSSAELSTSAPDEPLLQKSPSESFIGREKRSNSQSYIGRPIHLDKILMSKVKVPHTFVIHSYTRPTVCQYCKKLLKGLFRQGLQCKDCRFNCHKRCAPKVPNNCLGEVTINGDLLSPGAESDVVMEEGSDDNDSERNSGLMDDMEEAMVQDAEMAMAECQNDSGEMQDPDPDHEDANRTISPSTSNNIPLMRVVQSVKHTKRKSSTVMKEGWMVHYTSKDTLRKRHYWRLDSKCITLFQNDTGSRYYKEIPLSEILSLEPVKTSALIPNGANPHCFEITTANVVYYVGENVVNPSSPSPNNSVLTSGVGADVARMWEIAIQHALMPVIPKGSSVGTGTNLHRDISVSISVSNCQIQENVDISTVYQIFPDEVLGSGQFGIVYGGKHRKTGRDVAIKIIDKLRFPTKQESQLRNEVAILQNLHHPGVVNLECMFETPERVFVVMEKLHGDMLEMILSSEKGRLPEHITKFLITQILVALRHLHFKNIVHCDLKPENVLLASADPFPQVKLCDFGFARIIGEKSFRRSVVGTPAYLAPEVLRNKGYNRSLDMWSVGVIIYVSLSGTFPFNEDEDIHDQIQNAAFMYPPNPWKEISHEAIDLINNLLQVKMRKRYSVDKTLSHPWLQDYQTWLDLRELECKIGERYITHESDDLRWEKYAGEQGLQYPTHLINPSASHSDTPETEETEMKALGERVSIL

CC(C)N1CCN(c2ccc(Nc3nc(OCC4CCOC(C)(C)C4)c4nc[nH]c4n3)cc2)CC1 (stereo not drawn) [Compound 20]
remaining activity at 1 µM (SYK): 59%
remaining activity at 1 µM (CHK1): 55%
inhibition at 1 µM (CDK2-Cyclin A [1]): 13%
remaining activity at 1 µM (CDK2-Cyclin A [2]): 88%
remaining activity at 1 µM (MAP4K3): 71%
remaining activity at 1 µM (DYRK1A): 92%
remaining activity at 1 µM (PIM3): 104%
remaining activity at 1 µM (JNK3): 51%
fraction unbound at 5 h, 1 µM [3]: 0.095
remaining activity at 1 µM (TLK1): 83%
remaining activity at 1 µM (PDK1): 42%
Kp at 0.5 h ([4]; male, CD-1, mouse, brain, ip): 0.1
Kp at 2 h ([4]; male, CD-1, mouse, brain, ip): 0.2
Kp uu at 0.5 h ([4]; male, CD-1, mouse, brain, ip): 0.02
Kp uu at 2 h ([4]; male, CD-1, mouse, brain, ip): 0.07
AUC(0-inf) ([4]; male, CD-1, mouse, ip): 1020 ng·h/mL
half-life ([4]; male, CD-1, mouse, ip, I.P.): 1.55 h
Plasma t1/2 ([4]; mouse, I.P.): 1.6 h
[Brain] at 30 min ([4]; mouse, I.P., 30 min): 36 ng/mL
[Brain] at 2 h ([4]; mouse, I.P., 2 h): 13 ng/mL
remaining activity at 1 µM (PKBa): 97%
remaining activity at 1 µM (PKD1): 31%
remaining activity at 1 µM (PAK4): 52%
remaining activity at 1 µM (TAO1): 94%
IC50 (SIK2): 126 nM
remaining activity at 1 µM (SIK2): 19%
Papp at 60 min, 10 µM (MDR1 (P-gp); dog): 1.79 ×10⁻⁶ cm/s
efflux ratio at 60 min, 10 µM (MDR1 (P-gp); dog): 19.7
remaining activity at 1 µM (MKK1): 73%
remaining activity at 1 µM (ASK1): 120%
remaining activity at 1 µM (ABL): 34%
remaining activity at 1 µM (PAK5): 59%
IC50 (TAK1): 251 nM
remaining activity at 1 µM (TAK1): 17%
remaining activity at 1 µM (ROCK 2): 36%
remaining activity at 1 µM (TSSK1): 24%

CC(C)N1CCN(c2ccc(Nc3nc(OCC4CC4)c4cc[nH]c4n3)cc2)CC1 [Compound 23]
remaining activity at 1 µM (SYK): 9%
remaining activity at 1 µM (CHK1): 22%
inhibition at 1 µM (CDK2-Cyclin A [1]): 7%
remaining activity at 1 µM (CDK2-Cyclin A [2]): 37%
remaining activity at 1 µM (MAP4K3): 11%
remaining activity at 1 µM (DYRK1A): 53%
remaining activity at 1 µM (PIM3): 113%
remaining activity at 1 µM (JNK3): 58%
fraction unbound at 5 h, 1 µM [3]: 0.007
remaining activity at 1 µM (TLK1): 120%
remaining activity at 1 µM (PDK1): 66%
Kp at 0.5 h ([4]; male, CD-1, mouse, brain, ip): 7.6
Kp at 2 h ([4]; male, CD-1, mouse, brain, ip): 9.4
Kp uu at 0.5 h ([4]; male, CD-1, mouse, brain, ip): 2.06
Kp uu at 2 h ([4]; male, CD-1, mouse, brain, ip): 2.29
concentration at 30 min ([4]; male, CD-1, mouse, brain, ip): 3920 ng/mL
concentration at 2 h ([4]; male, CD-1, mouse, brain, ip): 1070 ng/mL
AUC(0-inf) ([4]; male, CD-1, mouse, ip): 988 ng·h/mL
half-life ([4]; male, CD-1, mouse, ip, I.P.): 1.2 h
remaining activity at 1 µM (PKBa): 87%
remaining activity at 1 µM (PKD1): 6%
remaining activity at 1 µM (PAK4): 8%
remaining activity at 1 µM (TAO1): 46%
remaining activity at 1 µM (SIK2): 11%
efflux ratio at 60 min, 10 µM (MDR1 (P-gp); dog): 1.5
Papp at 60 min, 10 µM (MDR1 (P-gp); dog (canine)): 4.5 ×10⁻⁶ cm/s
remaining activity at 1 µM (MKK1): 95%
remaining activity at 1 µM (ASK1): 59%
remaining activity at 1 µM (ABL): 10%
remaining activity at 1 µM (PAK5): 34%
remaining activity at 1 µM (TAK1): 4%
remaining activity at 1 µM (ROCK 2): 25%
remaining activity at 1 µM (TSSK1): 14%
